What was measured:
[1] = molecular target: T1, KRAS-G12C (C51S/C80L/C118S) (Homo sapiens, UniProt P01116, C118S/C51S/C80L/G12C); experiment: SOS-catalyzed nucleotide exchange assay (Procedure A, TR-FRET); type: biochemical; details: 60 min preincubation, SOS + GTP, read-out: KRAS G12C GNE IC50
T1 construct: N-terminal biotin-acceptor peptide […]
From the text: (§1) Procedure for SOS-Catalyzed Nucleotide Exchange Assay for KRAS-G12C/D/V, G13D, HRAS, and NRAS (Procedure A)
(§2) Recombinant KRAS-G12C protein used in this assay has an additional triple mutation (C51S/C80L/C118S), whereas KRAS-G12D/V, G13D, HRAS and NRAS are in context of their WT protein sequence background. Specifically, the SOS-catalyzed nucleotide exchange assay utilizes a preformed TR-FRET complex containing a specific biotinylated RAS protein (KRAS-G12C/V/D, G13D, HRAS, NRAS; described above) with Bodipy-GDP, and Terbium-streptavidin. Compounds are preincubated with this complex for 60 minutes. Subsequently, recombinant human SOS protein and unlabeled GTP are added to initiate the exchange reaction. Small molecule inhibitors stabilize the Bodipy-GDP complex whereas the untreated protein rapidly exchanges Bodipy-GDP for unlabeled GTP resulting in reduced TR-FRET signal.
(§3) To assemble the preformed TR-FRET complexes, each biotinylated RAS protein is diluted to 2 μM in an EDTA Buffer (20 mM HEPES pH 7.5, 50 mM sodium chloride, 10 mM EDTA, and 0.01% Tween) and incubated at room temperature for one hour. This mixture is then further diluted to 90 nM in an Assay Buffer (20 mM HEPES pH 7.5, 150 mM sodium chloride, 10 mM magnesium chloride, and 0.005% Tween) containing 15 nM of Terbium-Streptavidin (Invitrogen, catalog #PV3577) and 900 nM of Bodipy-GDP (Invitrogen, catalog #G22360) and incubated at room temperature for six hours. It should be noted that this preformed TR-FRET complex for each of the RAS protein were made ahead of time, aliquoted and stored at −80° C. until the day of the experiment.
(§4) Each test compound (10 mM stock in DMSO) is diluted in DMSO to make a final-10-point, 3-fold dilution and is acoustically dispensed into a 384-well assay plate (Corning, catalog #3820) using an Echo 550 (Labcyte). Each well of the assay plate receives 3 μL of a specific 3× RAS preformed TR-FRET complex and 3 μL of Assay Buffer and is incubated at room temperature for 60 minutes (preincubation time). Each well then receives 3 μL of 3× recombinant human SOS protein and GTP (Sigma, G8877) in Assay Buffer and is incubated at room temperature for 30 minutes (G13D), 60 minutes (G12C/D, H/NRAS) or 90 minutes for G12V. The final reaction in each well of […] consists of 3 mM GTP, specific Ras and SOS proteins in the following concentrations: KRAS-G12C/SOS=3 nM/40 nM, KRAS-G12D/SOS=1 nM/40 nM, KRAS-G12V/SOS=1.25 nM/160 nM, KRAS-G13D/SOS=1.25 nM/0 nM, HRAS & NRAS=1.25 nM/40 nM.
(§5) The time-resolved fluorescence resonance energy transfer (TR-FRET) signal is measured on an Envision (PerkinElmer) plate reader: Excitation filter=340 nm; emission1=495 nm; emission2=520 nm; dichroic mirror=D400/D505; delay time=[…]. The signal of each well is determined as the ratio of the emission at 520 nm to that at 495 nm. […] The apparent effect as a function of compound concentration is fit to a four-parameter logistic equation.

KRAS-G12V = molecular target: T2, KRAS-G12V (Homo sapiens, UniProt P01116, G12V); experiment: as above; type: biochemical; details: 60 min preincubation, SOS + GTP, read-out: KRAS G12V GNE IC50
T2 construct: N-terminal biotin-acceptor peptide […]
From the text: as §1, §2, §3, §4, §5

KRAS-G12D = molecular target: T3, KRAS-G12D (Homo sapiens, UniProt P01116, G12D); experiment: as above; type: biochemical; details: 60 min preincubation, SOS + GTP, read-out: KRAS G12D GNE IC50
T3 construct: N-terminal biotin-acceptor peptide […]
From the text: as §1, §2, §3, §4, §5

KRAS-G13D = molecular target: T4, KRAS-G13D (Homo sapiens, UniProt P01116, G13D); experiment: as above; type: biochemical; details: 60 min preincubation, GTP, read-out: KRAS G13D GNE IC50
T4 construct: N-terminal biotin-acceptor peptide […]
From the text: as §1, §2, §3, §4, §5

[2] = test system: PANC08.13 cells (homozygous KRAS-G12D activating mutation); experiment: Cellular phospho-ERK assay in G12D cell line; type: cell-based; details: Homo sapiens, PANC-08-13, 2 hours compound incubation, ratio of p-ERK vs. total ERK, read-out: PANC 0813 pERK IC50
Protocol: (§6) Procedure for Cellular Phospho-ERK Assay in G12D and G12V Cell Lines
(§7) PANC08.13 cells (ATCC® CRL-2551™), containing homozygous KRAS-G12D activating mutation, were cultured in growth medium made of RPMI1640-GlutaMAX™—I (ThermoFisher Scientific 61870) containing 15% heat inactivated fetal bovine serum (ThermoFisher Scientific 10091148)). SW620 cells (ATCC® […]), containing homozygous KRAS-G12V activating mutation, were cultured in growth medium that contains RPMI 1640-GlutaMAX™—I (ThermoFisher Scientific 61870) containing 10% heat inactivated fetal bovine serum (ThermoFisher Scientific 10091148).
(§8) Cells for the assay were harvested in growth medium after TrypLE (ThermoFisher scientific 12604021) digestion and were seeded in a 384-well collagen coated cell culture plate (Corning 356702) at a density of 10,000-15,000 cells/20 uL/well, and incubated at 37° C., 5% CO2 overnight. The compound (with 10 mM stock concentration) dose-response titrations were prepared [30 μM final ERK detection assay concentration and 1:3 dilutions, 10-point dose response] and appropriate amounts (270 nL) of test compounds were dispensed in a 384-well intermediate plate using an Echo 550 liquid handler. 30 uL/well of RPMI medium 1640-GlutaMAX™—I was added to the intermediate plate and the contents of the intermediate plate (10 uL/well) were then transferred to the 384-well collagen coated cell culture plate, which was incubated at 37° C., 5% CO2 for 2 hours. After removal of medium from the collagen coated cell culture plate, cells were lysed in lysis buffer from Alpha SureFire® Ultra™ Multiplex p-ERK and total ERK assay kit (PerkinElmer MPSU-PTERK) containing Halt™ Protease and Phosphatase inhibitor cocktail (ThermoFisher Scientific 78446) at room temperature with constant shaking at 300 rpm for 30 minutes. The cell lysates were then transferred to an OptiPlate-384 plate (PerkinElmer 6005620), and the phosphorylation of ERK (p-ERK) and total ERK levels were detected by Alpha SureFire® Ultra™ Multiplex p-EEK kit and total ERK assay kit (PerkinElmer MPSU-PTERK) following the manufacturer's protocol. Assay plates were read on a EnVision Multimode Plate Reader (PerkinElmer), and the ratio of p-ERK vs. total ERK in each well was used as the final readout. Dose response curves were analyzed using a 4-parameter logistic model to calculate IC50 values using Spotfire software.

[3] = test system: SW620 cells (homozygous KRAS-G12V activating mutation); experiment: Cellular phospho-ERK assay in G12V cell line; type: cell-based; details: Homo sapiens, SW-620, 2 hours compound incubation, ratio of p-ERK vs. total ERK, read-out: SW620 pERK IC50
Protocol: as §6, §7, §8

NRAS = NRAS (Homo sapiens, UniProt P01111); experiment: SOS-catalyzed nucleotide exchange assay (Procedure A, TR-FRET); type: biochemical; details: 60 min preincubation, SOS + GTP, read-out: NRAS GNE IC50
From the text: as §1, §2, §3, §4
(§9) The time-resolved fluorescence resonance energy transfer (TR-FRET) signal is measured on an Envision (PerkinElmer) plate reader: Excitation filter=340 nm; emission1=495 nm; emission2=520 nm; dichroic mirror=D400/D505; delay time=[…]. The signal of each well is determined as the ratio of the emission at 520 nm to that at 495 nm. Percent effect of each well is determined after normalization to control wells containing DMSO (no effect) or a saturating concentration of inhibitor (max effect). The apparent effect as a function of compound concentration is fit to a four-parameter logistic equation.

HRAS = HRAS (Homo sapiens, UniProt P01112); experiment: as above; type: biochemical; details: 60 min preincubation, SOS + GTP, read-out: HRAS GNE IC50
From the text: as §1, §2, §3, §4, §9

Sequence of HRAS (P01112 with tags, fused parts or gaps): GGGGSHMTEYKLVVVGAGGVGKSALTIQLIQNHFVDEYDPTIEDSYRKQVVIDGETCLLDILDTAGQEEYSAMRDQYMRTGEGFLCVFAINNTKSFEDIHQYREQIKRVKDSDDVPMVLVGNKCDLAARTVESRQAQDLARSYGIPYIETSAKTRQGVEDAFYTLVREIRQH
T1 sequence (P01116 with tags, fused parts or gaps isoform P01116-2 G12C/C51S/C80L/C118S): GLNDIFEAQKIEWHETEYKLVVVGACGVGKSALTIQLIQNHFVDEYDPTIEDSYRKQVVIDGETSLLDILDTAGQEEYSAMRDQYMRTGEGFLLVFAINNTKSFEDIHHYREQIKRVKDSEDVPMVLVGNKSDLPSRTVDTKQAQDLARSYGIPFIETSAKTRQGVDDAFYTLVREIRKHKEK
T3 sequence (P01116 with tags, fused parts or gaps isoform P01116-2 G12D): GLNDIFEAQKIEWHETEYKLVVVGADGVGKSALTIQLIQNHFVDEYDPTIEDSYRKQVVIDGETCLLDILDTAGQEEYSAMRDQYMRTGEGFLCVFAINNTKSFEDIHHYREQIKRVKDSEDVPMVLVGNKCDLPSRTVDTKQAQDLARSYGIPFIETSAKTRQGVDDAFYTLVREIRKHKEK
T2 sequence (P01116 with tags, fused parts or gaps isoform P01116-2 G12V): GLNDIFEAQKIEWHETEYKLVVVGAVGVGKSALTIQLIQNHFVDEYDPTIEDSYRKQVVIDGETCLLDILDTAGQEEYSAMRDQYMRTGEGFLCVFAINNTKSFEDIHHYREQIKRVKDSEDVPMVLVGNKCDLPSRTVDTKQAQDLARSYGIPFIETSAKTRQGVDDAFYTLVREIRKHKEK
T4 sequence (P01116 with tags, fused parts or gaps isoform P01116-2 G13D): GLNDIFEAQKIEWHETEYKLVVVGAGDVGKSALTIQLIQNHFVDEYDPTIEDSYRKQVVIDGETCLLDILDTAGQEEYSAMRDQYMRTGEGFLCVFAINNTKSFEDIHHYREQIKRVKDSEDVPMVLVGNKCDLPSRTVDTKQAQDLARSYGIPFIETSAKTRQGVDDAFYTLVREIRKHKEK
Sequence of NRAS (P01111 with tags, fused parts or gaps): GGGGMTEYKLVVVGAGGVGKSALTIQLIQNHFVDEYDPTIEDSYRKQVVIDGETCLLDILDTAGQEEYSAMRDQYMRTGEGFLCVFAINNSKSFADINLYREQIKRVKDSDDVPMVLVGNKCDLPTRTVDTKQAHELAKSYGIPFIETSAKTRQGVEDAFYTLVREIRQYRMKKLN

Compound	IC50 [1]	IC50 (KRAS-G12V)	IC50 (KRAS-G12D)	IC50 (KRAS-G13D)	IC50 (NRAS)	IC50 (HRAS)	IC50 [2]	IC50 [3]
Cc1cc(N)nc(-c2c(Cl)cc3c(N4CCCOCCC4)nc(OC[C@@]45CCCN4C[C@H](F)C5)nc3c2F)c1C(F)(F)F [compound 41, 6-(6-chloro-8-fluoro-2-(((2R,7aS)-2-fluorotetrahydro-1H-pyrrolizin-7a(5H)-yl)methoxy)-4-(1,5-oxazocan-5-yl)quinazolin-7-yl)-4-methyl-5-(trifluoromethyl)pyridin-2-amine]	56.5 nM	46.4 nM	125 nM	75.5 nM	> 11.1 µM	> 11.1 µM	348 nM	512 nM
N#Cc1c(N)sc2c(F)ccc(-c3c(Cl)cc4c(N5CCCCCC5)nc(OC[C@@]56CCCN5C[C@H](F)C6)nc4c3F)c12 [Ex. 1, 2-amino-4-(4-(azepan-1-yl)-6-chloro-8-fluoro-2-(((2R,7aS)-2-fluorotetrahydro-1H-pyrrolizin-7a(5H)-yl)methoxy)quinazolin-7-yl)-7-fluorobenzo[b]thiophene-3-carbonitrile]	–	–	–	–	> 11.1 µM	> 11.1 µM	68.8 nM	74.5 nM
CCNC[C@@]1(COc2nc(N3CCCOCC3)c3cc(Cl)c(-c4ccc(F)c5sc(N)c(C#N)c45)c(F)c3n2)CC1(F)F [compound 30, 2-amino-4-(6-chloro-2-(((R)-1-((ethylamino)methyl)-2,2-difluorocyclopropyl)methoxy)-8-fluoro-4-(1,4-oxazepan-4-yl)quinazolin-7-yl)-7-fluorobenzo[b]thiophene-3-carbonitrile]	–	33 nM	206 nM	–	–	–	849 nM	305 nM
C[C@@H]1CCCCCN1c1nc(OC[C@@]23CCCN2C[C@H](F)C3)nc2c(F)c(-c3ccc(F)c4sc(N)c(C#N)c34)c(Cl)cc12 [Ex. 2, 2-amino-4-(6-chloro-8-fluoro-2-(((2R,7aS)-2-fluorotetrahydro-1H-pyrrolizin-7a(5H)-yl)methoxy)-4-((R)-2-methylazepan-1-yl)quinazolin-7-yl)-7-fluorobenzo[b]thio-phene-3-carbonitrile]	–	13.2 nM	8.61 nM	–	–	–	372 nM	408 nM

Second part, led by results:

IC50 [1]	IC50 (KRAS-G12V)	IC50 (KRAS-G12D)	IC50 (KRAS-G13D)	IC50 (NRAS)	IC50 (HRAS)	Compound	IC50 [2]	IC50 [3]
51.1 nM	44.1 nM	188 nM	63.7 nM	> 11.1 µM	> 11.1 µM	N#Cc1c(N)sc2c(F)ccc(-c3c(Cl)cc4c(N5CCOCCC5C5CC5)nc(OC[C@@]56CCCN5C[C@H](F)C6)nc4c3F)c12 (stereo partly drawn) [compound 17, 2-amino-4-(6-chloro-4-(5-cyclopropyl-1,4-oxazepan-4-yl)-8-fluoro-2-(((2R,7aS)-2-fluorotetrahydro-1H-pyrrolizin-7a(5H)-yl)methoxy)quinazo-lin-7-yl)-7-fluorobenzo[b]thio-phene-3-carbonitrile]	2260 nM	–
30.5 nM	8.97 nM	47.1 nM	17.2 nM	> 11.1 µM	> 11.1 µM	CN1CCC[C@H]1COc1nc(N2CCCOCC2)c2cc(Br)c(-c3ccc(F)c4sc(N)c(C#N)c34)c(F)c2n1 [compound 38, 2-amino-4-(6-bromo-8-fluoro-2-(((S)-1-methylpyrrolidin-2-yl)methoxy)-4-(1,4-oxazepan-4-yl)quinazolin-7-yl)-7-fluorobenzo[b]thiophene-3-carbonitrile]	300 nM	–
14.7 nM	9.58 nM	25.2 nM	10.1 nM	> 11.1 µM	> 11.1 µM	COCC1CCOCCN1c1nc(OC[C@@]23CCCN2C[C@H](F)C3)nc2c(F)c(-c3ccc(F)c4sc(N)c(C#N)c34)c(Cl)cc12 (stereo partly drawn) [compound 16, 2-amino-4-(6-chloro-8-fluoro-2-(((2R,7aS)-2-fluorotetrahydro-1H-pyrrolizin-7a(5H)-yl)methoxy)-4-(5-(methoxymethyl)-1,4-oxazepan-4-yl)quinazolin-7-yl)-7-fluorobenzo[b]thio-phene-3-carbonitrile]	274 nM	–
22.6 nM	49.5 nM	253 nM	44.8 nM	> 11.1 µM	> 11.1 µM	C[C@H]1CCOCCN1c1nc(OC[C@]2(CN(C)C)CC2(F)F)nc2c(F)c(-c3ccc(F)c4sc(N)c(C#N)c34)ncc12 [compound 22, 2-amino-4-(2-(((R)-1-((dimethylamino)meth-yl)-2,2-difluorocyclopropyl)methoxy)-8-fluoro-4-((S)-5-methyl-1,4-oxazepan-4-yl)pyrido[4,3-d]pyrimidin-7-yl)-7-fluorobenzo[b]thiophene-3-carbonitrile]	413 nM	–

— patent US20260083750A1, “SMALL MOLECULE INHIBITORS OF KRAS PROTEINS” (MERCK SHARP & DOHME LLC, priority 2022, published 2026)
